The values that follow come from PMC6769468, “Endogenous Neuropeptide Nocistatin Is a Direct Agonist of Acid-Sensing Ion Channels (ASIC1, ASIC2 and ASIC3)” (Biomolecules, 2019).

One assay has as its system rat ASIC3 channels. On the set-up: method as in 2 sources, ref [20] = [20]; PMID 29277899; doi:10.1111/bph.14134; 20. Osmakov D.I. Koshelev S.G. Andreev Y.A. Dubinnyi M.A. Kublitski V.S. Efremov R.G. Sobolevsky A.I. Kozlov S.A. Proton-independent activation of acid-sensing ion channel 3 by an alkaloid, lindoldham ||| ref [22] = [22]; PMID 28955199; doi:10.3389/fnmol.2017.00282; 22. Osmakov D.I. Koshelev S.G. Andreev Y.A. Kozlov S.A. Endogenous Isoquinoline Alkaloids Agonists of Acid-Sensing Ion Channel Type 3 Front. Mol. Neurosci. 2017 10 282 10.3389/fnmol.2017.00282 2895519. Conditions: cited from earlier work; for Effect on rat ASIC3: physiological pH, prevents steady-state desensitization, ref [22].

The next assay deals with human ASIC3 channels. On the set-up: method as in 2 sources, ref [20] = [20]; PMID 29277899; doi:10.1111/bph.14134; 20. Osmakov D.I. Koshelev S.G. Andreev Y.A. Dubinnyi M.A. Kublitski V.S. Efremov R.G. Sobolevsky A.I. Kozlov S.A. Proton-independent activation of acid-sensing ion channel 3 by an alkaloid, lindoldham ||| ref [22] = [22]; PMID 28955199; doi:10.3389/fnmol.2017.00282; 22. Osmakov D.I. Koshelev S.G. Andreev Y.A. Kozlov S.A. Endogenous Isoquinoline Alkaloids Agonists of Acid-Sensing Ion Channel Type 3 Front. Mol. Neurosci. 2017 10 282 10.3389/fnmol.2017.00282 2895519. The note with it: cited from earlier work; for Effect on human ASIC3: physiological pH, prevents steady-state desensitization, ref [22].

The next assay deals with ASIC3. Conditions: cited from earlier work; for Effect on ASIC3: lipids, ref [21]. From the text: Acid-sensing ion channels (ASICs) are members of ligand-gated cation channels and belong to the degenerin/epithelial Na^+ channel superfamily. Four genes (ACCN1–ACCN4) express six subunits (ASIC1a, ASIC1b, ASIC2a, ASIC2b, ASIC3, and ASIC4), four of which can form functional homomeric channels (ASIC1a, ASIC1b, ASIC2a, and ASIC3). ASIC channels are widely expressed throughout the neurons of central and peripheral nervous systems, where they play a role in neurotransmission, synaptic plasticity, and learning, and in ischemia, neuronal cell death.

Assay [1] deals with ASIC channels. The note with it: Supplementary Figure S1 and ref [23]; cited from earlier work. The text has this: The nocistatin in mammalian is expressed as a precursor protein coding three neuropeptides (nocistatin, nociceptin, and Orphanin FQ2). […] Nocistatin is well represented in different parts of the brain and spinal cord. […] Nocistatin was studied in animal models as a prospective molecule together with opi ...

The subject of a further assay is ASIC1a. Briefly: Response of ASIC1a to nociceptin and orphanin. The note with it: applied under the same conditions as nocistatin, pH 7.4, pH drop to 5.5; n = 4. The class given is cell-based, rat. The method, then:
Oocytes expressed rASIC1a, rASIC1b, rASIC2a, and rASIC3 homomeric channels were prepared as described. Injected oocytes were kept for two–three days at 19 °C and then for up to seven days at 15 °C in ND-96 medium supplemented with gentamycin (50 μg·mL^−1) and containing (in mM): 96 NaCl, 2 KCl, 1.8 CaCl2, 1 MgCl2, and 10 HEPES titrated to pH 7.4 with NaOH. Electrophysiological recordings were performed using the GeneClamp500 amplifier (Axon Instruments, Inverurie, UK) at a holding potential of -50 mV. The data were filtered at 20 Hz and digitized at 100 Hz using the L780 AD converter (L-Card, Moscow, Russia). Microelectrodes were filled with 3 M KCl. The external bath solution was ND-96 with pH adjusted to 7.4/7.8 (10 mM HEPES) /8.5 (10 mM Tris). Nocistatin containing solutions were freshly prepared and buffered each experimental day in ND-96 bath solution (pH 7.4/7.8/8.5). Proton-activated currents through ASIC channels were elicited by application of ND-96, in which 10 mM of HEPES was substituted with 10 mM MES at pH 5.5/ 10 mM acetic acid at pH 4.5. The whole-cell recording was performed if a response to the control pH stimulus was stable in at least two replicates. […]
Figure S1. […] Currents were measured at a holding external bath pH 7.4 and were induced by a pH drop to 5.5. […]

The subject of assay [2] is ASIC channels. Conditions: ref [14],[18],[19]; cited from earlier work. From the text: All previously known activators of ASIC channels, both exogenous and endogenous, cause a persistent, slowly desensitized current that was different in kinetic parameters from currents induced by pH drops. […] Both agonists show rapid kinetics of desensitization of the currents and have a high Hill coefficient of activation. The identical efficiency with which the toxin Mamb-2 inhibits the nocistatin- and proton ...

In assay [3] the test system is delayed rectifying K^+, voltage-gated Na^+, and L-type Ca^2+ currents. On the set-up: method as in PMID 29477572. The note with it: ref [19]; cited from earlier work.
Where [4] appears, read: broad range of pH, including pH > 7.4, ref [20].

For `COc1ccc(C[C@H]2c3cc(O)c(OC)cc3CCN2C)cc1O` [reticuline], in the assay on rat ASIC3 channels, the “Effect on rat ASIC3” value is “activating human and rat ASIC3 channels at physiological pH and preventing a steady-state desensitization of the channels”. In addition, in the assay on human ASIC3 channels, the “Effect on human ASIC3” value is “activating human and rat ASIC3 channels at physiological pH and preventing a steady-state desensitization of the channels”.

Consider `Oc1ccc(CC2NCCc3cc(O)c(O)cc32)cc1O` (stereo not drawn) [tetrahydropapaveroline (THP), tetrahydropapaveroline], for which the “Effect on rat ASIC3” value in the assay with rat ASIC3 channels was “activating human and rat ASIC3 channels at physiological pH and preventing a steady-state desensitization of the channels”. The “Effect on human ASIC3” value in the assay on human ASIC3 channels was “activating human and rat ASIC3 channels at physiological pH and preventing a steady-state desensitization of the channels”.

Take “lysophosphatidylcholine [lysophosphatidylcholine (LPC)]”: the “Effect on ASIC3” value in the assay with ASIC3 is “evoking a constitutive depolarizing ASIC3-mediated current”.

As for “nociceptin: neuropeptide nociceptin (NC) [PNOC_RAT 135–151] (FGGFTGARKSARKLANQ; Nociceptin; UniProt Q62923 135-151, looked up, fragment)”, in the assay with ASIC channels [1], the “Activating effects on ASIC channels” value is given as “do not have activating effects on ASIC channels”. Besides, the “Effect on ASIC1a” value in the assay on ASIC1a is “no effect (neither activating nor inhibitory)”.

Regarding “orphanin: neuropeptide orphanin (Orf) [PNOC_RAT 154–170] (FSEFMRQYLVLSMQSSQ; Orphanin FQ2; UniProt Q62923 154-170, looked up, fragment)”, in the assay on ASIC channels [1], the “Activating effects on ASIC channels” value is given as “do not have activating effects on ASIC channels”. Further, the “Effect on ASIC1a” value with ASIC1a was “no effect (neither activating nor inhibitory)”.

For the compound `COc1cc2c(cc1O)[C@H](Cc1ccc(Oc3cc(C[C@@H]4NCCc5cc(OC)c(O)cc54)ccc3O)cc1)NCC2` [lindoldhamine], in the assay on rat ASIC3 channels (setting [4]), the “Action on rat ASIC3” value is “agonist and positive allosteric modulator”. Also, the “Action on human ASIC3” value in the assay with human ASIC3 channels (setting [4]) is “agonist and positive allosteric modulator”.

`CCCCC/C=C\C/C=C\C/C=C\C/C=C\CCCC(=O)O` [arachidonic acid]: the “Effect on ASIC3” value in the assay with ASIC3 is “evoking a constitutive depolarizing ASIC3-mediated current”.

Take `Cc1nc(NC(=N)N)nc2ccccc12` [GMQ, 2-guanidine-4-methylquinazoline]: the “Action on ASIC3” value in the assay with ASIC3 (pH < 7.4, ref [18]) is “acting on ASIC3 at pH < 7.4 through a nonproton sensor”. Moreover, the “Shape of current caused by activator” value with ASIC channels [2] is “slowly developing, non-desensitizing and non-selective cation current”. Also, the “Modulation of K^+, Na^+ and Ca^2+ currents” value in assay [3] is “modulating delayed rectifying K^+, voltage-gated Na^+, and L-type Ca^2+ currents”.
